Reference: patent publication US9695155B2, “Herbicidal substituted pyrimidinyloxy benzene compounds” (E. I. DU PONT DE NEMOURS AND COMPANY, priority 2013, dated 2017)

Key:
Italian ryegrass = assay: Test C postemergence; assay type: in vivo, Lolium multiflorum; conditions: Lolium multiflorum, post-emergence
Method in brief: (§1)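 Whole-plant greenhouse test with surfactant-containing solvent formulation, applied preemergence to sown loam–sand pots or postemergence to 2–18 cm plants. Scored by eye 13 to 15 days on, 0–100 scale.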

barnyardgrass = assay: Test C postemergence; assay type: in vivo, Echinochloa crus-galli; conditions: Echinochloa crus-galli, post-emergence
Method in brief: as §1

wheat = assay: Test A postemergence; assay type: in vivo, Triticum aestivum; conditions: Triticum aestivum, post-emergence, 240 h
Method in brief: (§2)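 Compounds in non-phytotoxic solvent with surfactant applied as soil spray preemergence, or postemergence to plants 2-10 cm at one- to two-leaf stage, in loam/sand. After approximately 10 days in greenhouse, injury rated visually versus untreated controls, 0 (no effect) to 100 (complete control).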

velvetleaf [1] = assay: Test C postemergence; assay type: in vivo, Abutilon theophrasti; conditions: Abutilon theophrasti, post-emergence
Method in brief: as §1

corn [2] = assay: Test C preemergence; assay type: in vivo, Zea mays; conditions: Zea mays, pre-emergence, preemergence, scale 0 (no effect) to 100 (complete control), read-out: Corn plant response rating
Method in brief: as §1

corn [3] = assay: Test A preemergence; assay type: in vivo, Zea mays; conditions: Zea mays, pre-emergence, 240 h
Method in brief: as §2

galium = assay: Test C postemergence; assay type: in vivo, Galium aparine; conditions: Galium, post-emergence
Method in brief: as §1

wheat, winter = assay: Test C postemergence; assay type: in vivo, Triticum aestivum; conditions: Triticum aestivum, post-emergence
Method in brief: as §1

lambsquarters = assay: Test C postemergence; assay type: in vivo, Chenopodium album; conditions: Chenopodium album, post-emergence
Method in brief: as §1

blackgrass = assay: Test C preemergence; assay type: in vivo, Alopecurus myosuroides; conditions: Alopecurus myosuroides, pre-emergence
Method in brief: as §1

oilseed rape = assay: Test C postemergence; assay type: in vivo, Brassica napus; conditions: Brassica napus, post-emergence
Method in brief: as §1

velvetleaf [4] = assay: Test C preemergence; assay type: in vivo, Abutilon theophrasti; conditions: Abutilon theophrasti, pre-emergence
Method in brief: as §1

sedge, umbrella = assay: Test B flooded paddy test; assay type: in vivo, Cyperus difformis; conditions: Cyperus difformis, Flood, 250 g ai/ha; 0 to 100 scale where 0 is no effect and 100 is complete control; read-out: Plant response rating, Sedge, Umbrella
Method in brief: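 Flooded to 3 cm at the 2-leaf stage, pots received compound through the paddy water and were kept at that depth under greenhouse conditions. After 13–15 days, effect was rated by eye relative to controls, 0 = none and 100 = complete control.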

velvetleaf [5] = assay: Test A preemergence; assay type: in vivo, Abutilon theophrasti
Method in brief: as §2

pigweed = assay: Test C preemergence; assay type: in vivo, Amaranthus retroflexus; conditions: Amaranthus retroflexus, pre-emergence
Method in brief: as §1

[6] = 125 g ai/ha, 0 to 100 scale where 0 is no effect and 100 is complete control

`N#Cc1cccc(Oc2ncc(Br)cn2)c1-n1cc(C(F)(F)F)cn1` [Compound 59, 3-[(5-bromo-2-pyrimidinyl)oxy]-2-[4-(trifluoromethyl)-1H-pyrazol-1-yl]benzonitrile] was tested, and the pest or weed control at 125 g/ha (Italian ryegrass; 125 g ai/ha, postemergence, read-out: Plant response rating (0 to 100), Ryegrass, Italian) was 10%, the pest or weed control at 250 g/ha (Italian ryegrass; 250 g ai/ha, postemergence, read-out: Plant response rating (0 to 100), Ryegrass, Italian) was 30% and the pest or weed control at 31 g/ha (Italian ryegrass; Postemergence, 31 g ai/ha, scale 0 to 100 (0 no effect, 100 complete control), 13 to 15 days, read-out: Plant response rating, Ryegrass, Italian) was 5%. It also gave a pest or weed control at 62 g/ha (Italian ryegrass; Postemergence, 62 g ai/ha, scale 0 to 100 (0 no effect, 100 complete control), read-out: Plant response rating, Ryegrass, Italian) of 10%, a pest or weed control at 125 g/ha (barnyardgrass; 125 g ai/ha, postemergence, read-out: Plant response rating (0 to 100), Barnyardgrass) of 10% and a pest or weed control at 250 g/ha (barnyardgrass; 250 g ai/ha, postemergence, read-out: Plant response rating (0 to 100), Barnyardgrass) of 25%. The pest or weed control at 31 g/ha (barnyardgrass; Postemergence, 31 g ai/ha, scale 0 to 100 (0 no effect, 100 complete control), 13 to 15 days, read-out: Plant response rating, Barnyardgrass) was 5%, the pest or weed control at 62 g/ha (barnyardgrass; Postemergence, 62 g ai/ha, scale 0 to 100 (0 no effect, 100 complete control), read-out: Plant response rating, Barnyardgrass) was 5% and the plant injury at 125 g/ha (wheat; 125 g ai/ha, 0 to 100 scale where 0 is no effect and 100 is complete control, read-out: Plant response rating, Wheat) was 70%. It also gave a plant injury at 500 g/ha (wheat; 500 g ai/ha, 0 to 100 scale, 0 no effect, 100 complete control, read-out: Plant response rating Wheat) of 100%, a pest or weed control at 125 g/ha (velvetleaf [1]; 125 g ai/ha, postemergence, read-out: Plant response rating (0 to 100), Velvetleaf) of 55% and a pest or weed control at 250 g/ha (velvetleaf [1]; 250 g ai/ha, postemergence, read-out: Plant response rating (0 to 100), Velvetleaf) of 70%. For the same molecule, the pest or weed control at 31 g/ha (velvetleaf [1]; Postemergence, 31 g ai/ha, scale 0 to 100 (0 no effect, 100 complete control), 13 to 15 days, read-out: Plant response rating, Velvetleaf) was 15%, the pest or weed control at 62 g/ha (velvetleaf [1]; Postemergence, 62 g ai/ha, scale 0 to 100 (0 no effect, 100 complete control), read-out: Plant response rating, Velvetleaf) was 30% and the plant injury at 62 g/ha (corn [2]; 62 g ai/ha) was 55%. It also gave a plant injury at 125 g/ha (corn [2]; 125 g ai/ha) of 75%, a plant injury at 250 g/ha (corn [2]; 250 g ai/ha) of 90% and a Corn plant response rating (crop injury, 0 = no effect, 100 = complete kill) at 125 g/ha (corn [3]; [6]) of 20%. It also gave a plant injury at 500 g/ha (corn [3]; 500 g ai/ha, 0 to 100 scale, 0 no effect, 100 complete control, approx. 10 days, read-out: Corn plant response rating) of 30%, a pest or weed control at 125 g/ha (galium; 125 g ai/ha, postemergence, read-out: Plant response rating (0 to 100), Galium) of 90% and a pest or weed control at 250 g/ha (galium; 250 g ai/ha, postemergence, read-out: Plant response rating (0 to 100), Galium) of 90%. For the same molecule, the pest or weed control at 31 g/ha (galium; Postemergence, 31 g ai/ha, scale 0 to 100 (0 no effect, 100 complete control), 13 to 15 days, read-out: Plant response rating, Galium) was 65%, the pest or weed control at 62 g/ha (galium; Postemergence, 62 g ai/ha, scale 0 to 100 (0 no effect, 100 complete control), read-out: Plant response rating, Galium) was 80% and the plant injury at 125 g/ha (wheat, winter; 125 g ai/ha, postemergence, read-out: Plant response rating (0 to 100), Wheat) was 20%. For the same molecule, the plant injury at 250 g/ha (wheat, winter; 250 g ai/ha, postemergence, read-out: Plant response rating (0 to 100), Wheat) was 20%, the plant injury at 31 g/ha (wheat, winter; Postemergence, 31 g ai/ha, scale 0 to 100 (0 no effect, 100 complete control), 13 to 15 days, read-out: Plant response rating, Wheat) was 5% and the plant injury at 62 g/ha (wheat, winter; Postemergence, 62 g ai/ha, scale 0 to 100 (0 no effect, 100 complete control), read-out: Plant response rating, Wheat) was 5%. The pest or weed control at 125 g/ha (lambsquarters; 125 g ai/ha, postemergence, read-out: Plant response rating (0 to 100), Lambsquarters) was 90%, the pest or weed control at 250 g/ha (lambsquarters; 250 g ai/ha, postemergence, read-out: Plant response rating (0 to 100), Lambsquarters) was 90% and the pest or weed control at 31 g/ha (lambsquarters; Postemergence, 31 g ai/ha, scale 0 to 100 (0 no effect, 100 complete control), 13 to 15 days, read-out: Plant response rating, Lambsquarters) was 70%. The pest or weed control at 62 g/ha (lambsquarters; Postemergence, 62 g ai/ha, scale 0 to 100 (0 no effect, 100 complete control), read-out: Plant response rating, Lambsquarters) was 80%, the pest or weed control at 62 g/ha (blackgrass; 62 g ai/ha, preemergence, scale 0 (no effect) to 100 (complete control), read-out: Blackgrass plant response rating) was 85% and the pest or weed control at 125 g/ha (blackgrass; 125 g ai/ha, preemergence, scale 0 (no effect) to 100 (complete control), read-out: Blackgrass plant response rating) was 90%. For the same molecule, the pest or weed control at 250 g/ha (blackgrass; 250 g ai/ha, preemergence, scale 0 (no effect) to 100 (complete control), read-out: Blackgrass plant response rating) was 90%, the pest or weed control at 31 g/ha (blackgrass; Preemergence, 31 g ai/ha, scale 0 to 100, 0 no effect, 100 complete control, read-out: Plant response rating, Blackgrass) was 5% and the plant injury at 125 g/ha (oilseed rape; 125 g ai/ha, postemergence, read-out: Plant response rating (0 to 100), Oilseed Rape) was 85%. It also gave a plant injury at 250 g/ha (oilseed rape; 250 g ai/ha, postemergence, read-out: Plant response rating (0 to 100), Oilseed Rape) of 95%, a plant injury at 31 g/ha (oilseed rape; Postemergence, 31 g ai/ha, scale 0 to 100 (0 no effect, 100 complete control), 13 to 15 days, read-out: Plant response rating, Oilseed Rape) of 50% and a plant injury at 62 g/ha (oilseed rape; Postemergence, 62 g ai/ha, scale 0 to 100 (0 no effect, 100 complete control), read-out: Plant response rating, Oilseed Rape) of 50%. It also gave a pest or weed control at 62 g/ha (velvetleaf [4]; 62 g ai/ha, preemergence, scale 0 (no effect) to 100 (complete control), read-out: Velvetleaf plant response rating) of 100%, a pest or weed control at 125 g/ha (velvetleaf [4]; 125 g ai/ha, preemergence, scale 0 (no effect) to 100 (complete control), read-out: Velvetleaf plant response rating) of 100% and a pest or weed control at 250 g/ha (velvetleaf [4]; 250 g ai/ha, preemergence, scale 0 (no effect) to 100 (complete control), read-out: Velvetleaf plant response rating) of 100%. The pest or weed control at 31 g/ha (velvetleaf [4]; Preemergence, 31 g ai/ha, scale 0 to 100, 0 no effect, 100 complete control, read-out: Plant response rating, Velvetleaf) was 100%, the pest or weed control at 250 g/ha (sedge, umbrella) was 90% and the “Plant response rating, Velvetleaf” value (velvetleaf [5]; [6]) was 100. For the same molecule, the pest or weed control at 500 g/ha (velvetleaf [5]; Abutilon theophrasti, pre-emergence, 240 h, 500 g ai/ha, 0 to 100 scale, 0 no effect, 100 complete control, approx. 10 days, read-out: Velvetleaf plant response rating) was 100%, the pest or weed control at 62 g/ha (pigweed; 62 g ai/ha, preemergence, scale 0 (no effect) to 100 (complete control), read-out: Pigweed plant response rating) was 100% and the pest or weed control at 125 g/ha (pigweed; 125 g ai/ha, preemergence, scale 0 (no effect) to 100 (complete control), read-out: Pigweed plant response rating) was 100%. It also gave a pest or weed control at 250 g/ha (pigweed; 250 g ai/ha, preemergence, scale 0 (no effect) to 100 (complete control), read-out: Pigweed plant response rating) of 100% and a pest or weed control at 31 g/ha (pigweed; Preemergence, 31 g ai/ha, scale 0 to 100, 0 no effect, 100 complete control, read-out: Plant response rating, Pigweed) of 100%.
